Experimental data reported in patent US8765773B2, “Substituted hydroxamic acids and uses thereof” (Millennium Pharmaceuticals, Inc., priority 2010, dated 2014).

Target: T1, purified human HDAC6 (Homo sapiens, UniProt Q9UBN7)
T1 construct: purchased BPS Bioscience 5006
T1 sequence (Q9UBN7 1-1215): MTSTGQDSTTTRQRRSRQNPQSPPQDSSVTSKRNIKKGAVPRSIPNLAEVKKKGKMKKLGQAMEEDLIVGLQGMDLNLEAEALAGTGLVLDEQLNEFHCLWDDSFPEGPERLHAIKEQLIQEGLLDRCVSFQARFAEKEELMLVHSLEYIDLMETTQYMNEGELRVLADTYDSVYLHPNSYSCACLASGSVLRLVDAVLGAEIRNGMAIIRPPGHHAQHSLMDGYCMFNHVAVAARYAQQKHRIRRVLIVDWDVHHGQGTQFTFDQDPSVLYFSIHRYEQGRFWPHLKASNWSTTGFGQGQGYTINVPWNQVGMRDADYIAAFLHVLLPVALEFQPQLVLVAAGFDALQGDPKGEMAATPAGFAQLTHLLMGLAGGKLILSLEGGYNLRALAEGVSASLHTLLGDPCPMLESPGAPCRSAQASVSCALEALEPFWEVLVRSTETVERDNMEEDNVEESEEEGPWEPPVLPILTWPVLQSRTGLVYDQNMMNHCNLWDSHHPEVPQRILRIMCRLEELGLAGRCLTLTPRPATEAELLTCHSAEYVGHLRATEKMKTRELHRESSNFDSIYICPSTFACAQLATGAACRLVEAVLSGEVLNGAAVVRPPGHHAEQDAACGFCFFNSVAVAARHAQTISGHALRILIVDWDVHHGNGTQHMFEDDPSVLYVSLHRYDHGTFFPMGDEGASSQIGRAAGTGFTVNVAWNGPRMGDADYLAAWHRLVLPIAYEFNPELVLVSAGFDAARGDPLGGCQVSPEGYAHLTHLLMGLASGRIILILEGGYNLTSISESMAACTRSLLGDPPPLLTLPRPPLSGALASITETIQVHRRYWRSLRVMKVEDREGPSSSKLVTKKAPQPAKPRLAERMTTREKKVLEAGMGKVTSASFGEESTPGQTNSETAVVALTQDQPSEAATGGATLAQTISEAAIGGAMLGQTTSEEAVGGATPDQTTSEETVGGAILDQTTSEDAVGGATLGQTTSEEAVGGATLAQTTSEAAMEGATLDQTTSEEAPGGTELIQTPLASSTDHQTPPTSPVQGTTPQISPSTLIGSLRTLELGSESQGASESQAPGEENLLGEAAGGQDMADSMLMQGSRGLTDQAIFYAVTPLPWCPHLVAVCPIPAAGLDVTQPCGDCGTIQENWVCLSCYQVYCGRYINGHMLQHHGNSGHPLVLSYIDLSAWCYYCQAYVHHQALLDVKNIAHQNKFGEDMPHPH
Experiment: HDAC6 Enzyme Assay
Format: biochemical
Details: read-out: Percent Inhibition; for inhibition at 0.412 µM: compound concentration 0.412 μM; for inhibition at 0.37 µM: compound concentration 0.37 μM
Procedure, shortened: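 Readout is AMC fluorescence (Ex 340 nm, Em 460 nm) after trypsin cleavage of the deacetylated Ac-Arg-Gly-Lys(Ac)-AMC product. Reaction: purified human HDAC6, compound or vehicle, 1 hour, 30° C, quenched by trichostatin A. Single-concentration percent inhibition or IC50 calculated versus DMSO-treated samples.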

SMILES	inhibition at 0.412 µM	inhibition at 0.37 µM
O=C(NO)c1ccc2ccn(CCN3CCCCC3)c(=O)c2c1 [Compound I-277, N-hydroxy-1-oxo-2-(2-piperidin-1-ylethyl)-1,2-dihydroisoquinoline-7-carboxamide]	71.2%	–
O=C(NO)c1ccc2c(=O)[nH]c(C(=O)NC3CCNCC3)nc2c1 [Compound I-278, N^7-hydroxy-4-oxo-N^2-piperidin-4-yl-3,4-dihydroquinazoline-2,7-dicarboxamide]	26.2%	–
O=C(NO)c1ccc2ccn(Cc3ccccn3)c(=O)c2c1 [Compound I-279, N-hydroxy-1-oxo-2-(pyridin-2-ylmethyl)-1,2-dihydroisoquinoline-7-carboxamide]	87.9%	–
O=C(NO)c1ccc2c(=O)n(-c3ccc(Cl)cc3)c(=O)[nH]c2c1 [Compound I-280, 3-(4-chlorophenyl)-N-hydroxy-2,4-dioxo-1,2,3,4-tetrahydroquinazoline-7-carboxamide]	20.9%	–
O=C(NO)c1ccc2ccn(CCOc3cccc(C(F)(F)F)c3)c(=O)c2c1 [Compound I-282, N-hydroxy-1-oxo-2-{2-[3-(trifluoromethyl)phenoxy]ethyl}-1,2-dihydroisoquinoline-7-carboxamide]	95.5%	–
O=C(NO)c1ccc2nc[nH]c(=O)c2c1 [Compound I-283, N-hydroxy-4-oxo-3,4-dihydroquinazoline-6-carboxamide]	63.3%	–
O=C(NO)c1ccc2c(=O)[nH]cnc2c1 [Compound I-284, N-hydroxy-4-oxo-3,4-dihydroquinazoline-7-carboxamide]	76.8%	–
COc1ccc(CCn2ccc3ccc(C(=O)NO)cc3c2=O)cc1 [Compound I-285, N-hydroxy-2-[2-(4-methoxyphenyl)ethyl]-1-oxo-1,2-dihydroisoquinoline-7-carboxamide]	95.3%	–
Cn1c(=O)[nH]c2cc(C(=O)NO)ccc2c1=O [Compound I-286, N-hydroxy-3-methyl-2,4-dioxo-1,2,3,4-tetrahydroquinazoline-7-carboxamide]	21.2%	–
Cn1ccc2ccc(C(=O)NO)cc2c1=O [Compound I-287, N-hydroxy-2-methyl-1-oxo-1,2-dihydroisoquinoline-7-carboxamide]	67.6%	–
CC(C)(C)c1ccc(Cn2cnc3ccc(C(=O)NO)cc3c2=O)cc1 [Compound I-288, 3-(4-tert-butylbenzyl)-N-hydroxy-4-oxo-3,4-dihydroquinazoline-6-carboxamide]	94.9%	–
O=C(NO)c1ccc2ccn(Cc3ccc(-n4cccn4)cc3)c(=O)c2c1 [Compound I-289, N-hydroxy-1-oxo-2-[4-(1H-pyrazol-1-yl)benzyl]-1,2-dihydroisoquinoline-7-carboxamide]	96.7%	–
O=C(NO)c1ccc2ccn(Cc3ccc4nonc4c3)c(=O)c2c1 [Compound I-290, 2-(2,1,3-benzoxadiazol-5-ylmethyl)-N-hydroxy-1-oxo-1,2-dihydroisoquinoline-7-carboxamide]	98.5%	–
O=C(NO)c1ccc2c(Br)cn(Cc3ccccc3)c(=O)c2c1 [Compound I-292, 2-benzyl-4-bromo-N-hydroxy-1-oxo-1,2-dihydroisoquinoline-7-carboxamide]	–	82.8%
O=C(NO)c1ccc2ccn(CCC(c3ccc(Cl)cc3)c3ccc(Cl)cc3)c(=O)c2c1 [Compound I-293, 2-[3,3-bis(4-chlorophenyl)propyl]-N-hydroxy-1-oxo-1,2-dihydroisoquinoline-7-carboxamide]	–	91.5%
CC(C)NCCn1cnc2ccc(C(=O)NO)cc2c1=O [Compound I-294, N-hydroxy-3-[2-(isopropylamino)ethyl]-4-oxo-3,4-dihydroquinazoline-6-carboxamide]	–	56%
O=C(NO)c1ccc2ccn(-c3ccccc3Cl)c(=O)c2c1 [Compound I-298, 2-(2-chlorophenyl)-N-hydroxy-1-oxo-1,2-dihydroisoquinoline-7-carboxamide]	–	94.6%
O=C(NO)c1ccc2ccn(Cc3ccc(-n4cccc4)cc3)c(=O)c2c1 [Compound I-305, N-hydroxy-1-oxo-2-[4-(1H-pyrrol-1-yl)benzyl]-1,2-dihydroisoquinoline-7-carboxamide]	–	99%
O=C(NO)c1ccc2ccn(Cc3cccc(-n4cc5ccccc5n4)c3)c(=O)c2c1 [Compound I-308, N-hydroxy-2-[3-(2H-indazol-2-yl)benzyl]-1-oxo-1,2-dihydroisoquinoline-7-carboxamide]	–	97.9%
O=C(NO)c1ccc2ccn(-c3ccccn3)c(=O)c2c1 [Compound I-310, N-hydroxy-1-oxo-2-pyridin-2-yl-1,2-dihydroisoquinoline-7-carboxamide]	–	90.3%

Other lines, results leading:

inhibition at 0.412 µM	inhibition at 0.37 µM	SMILES
–	90.8%	COc1cccc(-c2cccc(Cn3cnc4ccc(C(=O)NO)cc4c3=O)c2)c1 [Compound I-281, N-hydroxy-3-[(3′-methoxybiphenyl-3-yl)methyl]-4-oxo-3,4-dihydroquinazoline-6-carboxamide]
–	89.6%	O=C(NO)c1ccc2ncn(CCc3cccc(-c4cccc(C(=O)NC5CC5)c4)c3)c(=O)c2c1 [Compound I-291, 3-(2-{3′-[(cyclopropylamino)carbonyl]biphenyl-3-yl}ethyl)-N-hydroxy-4-oxo-3,4-dihydroquinazoline-6-carboxamide]
–	72.5%	O=C(NO)c1ccc2ncn(CCc3cccc(-c4ccc(C(F)(F)F)cc4)c3)c(=O)c2c1 [Compound I-295, N-hydroxy-4-oxo-3-{2-[4′-(trifluoromethyl)biphenyl-3-yl]ethyl}-3,4-dihydroquinazoline-6-carboxamide]
–	94.2%	Cc1ccccc1-c1cccc(CCn2cnc3ccc(C(=O)NO)cc3c2=O)c1 [Compound I-296, N-hydroxy-3-[2-(2′-methylbiphenyl-3-yl)ethyl]-4-oxo-3,4-dihydroquinazoline-6-carboxamide]
–	61.5%	CC(C)c1ccc(-c2cccc(CCn3cnc4ccc(C(=O)NO)cc4c3=O)c2)cc1 [Compound I-297, N-hydroxy-3-[2-(4′-isopropylbiphenyl-3-yl)ethyl]-4-oxo-3,4-dihydroquinazoline-6-carboxamide]
–	90.6%	O=C(NO)c1ccc2ncn(CCc3cccc(-c4ccc(S(=O)(=O)N5CCCCC5)cc4)c3)c(=O)c2c1 [Compound I-299, N-hydroxy-4-oxo-3-{2-[4′-(piperidin-1-ylsulfonyl)biphenyl-3-yl]ethyl}-3,4-dihydroquinazoline-6-carboxamide]
–	91.7%	O=C(NO)c1ccc2ncn(CCc3cccc(-c4ccc(F)cc4)c3)c(=O)c2c1 [Compound I-300, 3-[2-(4′-fluorobiphenyl-3-yl)ethyl]-N-hydroxy-4-oxo-3,4-dihydroquinazoline-6-carboxamide]
–	88.1%	Cc1ccc(-c2cccc(CCn3cnc4ccc(C(=O)NO)cc4c3=O)c2)cc1 [Compound I-301, N-hydroxy-3-[2-(4′-methylbiphenyl-3-yl)ethyl]-4-oxo-3,4-dihydroquinazoline-6-carboxamide]
–	83.5%	O=C(NO)c1ccc2ncn(CCc3cccc(-c4cc5ccccc5s4)c3)c(=O)c2c1 [Compound I-302, 3-{2-[3-(1-benzothien-2-yl)phenyl]ethyl}-N-hydroxy-4-oxo-3,4-dihydroquinazoline-6-carboxamide]
–	93.3%	COc1ccc(-c2cccc(CCn3cnc4ccc(C(=O)NO)cc4c3=O)c2)cc1 [Compound I-303, N-hydroxy-3-[2-(4′-methoxybiphenyl-3-yl)ethyl]-4-oxo-3,4-dihydroquinazoline-6-carboxamide]
–	90.9%	Cc1cccc(-c2cccc(CCn3cnc4ccc(C(=O)NO)cc4c3=O)c2)c1 [Compound I-304, N-hydroxy-3-[2-(3′-methylbiphenyl-3-yl)ethyl]-4-oxo-3,4-dihydroquinazoline-6-carboxamide]
–	83.8%	CN(C)S(=O)(=O)c1cccc(-c2cccc(CCn3cnc4ccc(C(=O)NO)cc4c3=O)c2)c1 [Compound I-309, 3-(2-{3′-[(dimethylamino)sulfonyl]biphenyl-3-yl}ethyl)-N-hydroxy-4-oxo-3,4-dihydroquinazoline-6-carboxamide]
